SMILES strings stand for the structures.

This data set can be described thus: physchem.

As to `CO/N=C\c1cnn2c(NC(C)C(C)(C)C)c(-c3ccc(F)cc3Cl)c(Cl)nc12` (centres unmarked) [Example 402, 3-methoximino-5-chloro-6-(2-chloro-4-fluorophenyl)-7-(1,2,2-trimethylpropylamino)pyrazolo[1,5a]pyrimidine], the chromatographic logP (as a rule, a lipophilicity value derived from retention on a column) runs as follows: (log P) 5.48; (logP) 5.48.

As to `C=C(C)CN(CC)c1c(-c2c(F)cc(F)cc2F)c(Cl)nc2c(C#N)cnn12` [compound 6], the chromatographic logP (logP) was 4.6.

Turning to `C[C@H](Nc1c(-c2ccccc2F)c(Cl)nc2c(C#N)cnn12)C(F)(F)F` [compound 74], for the setting “logP”, the chromatographic logP was determined as 3.49.

On to `N#Cc1cnn2c(NCC3CC3)c(-c3c(F)cc(F)cc3F)c(Cl)nc12` [compound 54], for which the chromatographic logP (logP) was 3.63.

Take `C=C(C)CN(C)c1c(-c2c(F)cc(F)cc2F)c(Cl)nc2c(C#N)cnn12` [compound 110]: the chromatographic logP (logP) stood at 4.24.

For the setting “log P”, `CC(C)C(C)Nc1c(-c2ccc(F)cc2Cl)cnc2c(Cl)cnn12` (centres unmarked) [Example 5, N-[3-chloro-6-(2-chloro-4-fluorophenyl)pyrazolo[1,5-a]pyrimidin-7-yl]-N-(1,2-dimethylpropyl)amine] returned a chromatographic logP of 4.53.

With `CCC(C)Nc1c(-c2c(F)cc(F)cc2F)c(Cl)nc2c(C#N)cnn12` (centres unmarked) [compound 50], the chromatographic logP (logP) stood at 3.89.

Turning to `N#Cc1cnn2c(N3CCC(F)(F)CC3)c(-c3c(F)cc(F)cc3F)c(Cl)nc12` [compound 230], where the note is “logP”, the chromatographic logP was determined as 3.81.

Turning to `CC1CCN(c2c(-c3c(F)cccc3Cl)c(Cl)nc3c(C#N)cnn23)CC1` [compound 28], the chromatographic logP (logP) amounted to 4.77.

As to `CC(C)CN(C)c1c(-c2ccccc2Cl)c(Cl)nc2c(C#N)cnn12` [compound 138], under “logP”, the chromatographic logP came to 4.51.

In the case of `C[C@H](Nc1c(-c2c(F)cc(F)cc2F)c(Cl)nc2c(Cl)cnn12)C(F)(F)F` [Example 3, N-[3,5-dichloro-6-(2,4,6-trifluorophenyl)pyrazolo[1,5-a]pyrimidin-7-yl]-N-[(1S)-2,2,2-trifluoro-1-methylethyl]amine], the chromatographic logP (log P) was 4.43.

As for `C=C(C)CN(CC)c1c(-c2c(F)cccc2Cl)c(Cl)nc2c(C#N)cnn12` [compound 13], the chromatographic logP (logP) came to 4.68.

`CC(C)CN(C)c1c(-c2c(F)cc(F)cc2F)c(Cl)nc2c(C#N)cnn12` [compound 108] yielded a chromatographic logP (logP) of 4.37.

On to `C[C@H](Nc1c(-c2c(F)cccc2Cl)c(Cl)nc2c(C#N)cnn12)C(F)(F)F` [compound 12], for which the chromatographic logP (logP) stood at 3.73.

`N#Cc1cnn2c(NCC3CC3)c(-c3c(F)cccc3Cl)c(Cl)nc12` [compound 29] gave a chromatographic logP (logP) of 3.74.

`C[C@H](Nc1c(-c2ccc(F)cc2Cl)c(Cl)nc2c(C#N)cnn12)C(F)(F)F` (single isomer, unassigned) [Example 1]: the chromatographic logP (log P) was 3.88.

The compound `N#Cc1cnn2c(N3CCC(F)CC3)c(-c3c(F)cccc3Cl)c(Cl)nc12` [compound 34] registered a chromatographic logP (logP) of 3.82.

For `N#Cc1cnn2c(Cl)c(-c3ccc(F)cc3Cl)c(Cl)nc12` [Example 441, 3-cyano-5,7-dichloro-6-(2-chloro-4-fluorophenyl)pyrazolo[1,5-a]pyrimidine], the chromatographic logP (log P) is 3.48.

In turn, `C[C@H](Nc1c(-c2c(F)cc(F)cc2F)c(Cl)nc2c(C#N)cnn12)C(F)(F)F` [compound 7] came in with a chromatographic logP (logP) of 3.69.

Consider `Fc1cc(F)c(-c2c(Cl)nc3c(Cl)cnn3c2N2CCC(F)(F)CC2)c(F)c1` [compound 231], for which the chromatographic logP (logP) amounted to 4.61.

Turning to `Fc1cc(F)c(-c2c(Cl)nc3c(Cl)cnn3c2Cl)c(F)c1` [Example 442, 3,5,7-trichloro-6-(2,4,6-trifluorophenyl)pyrazolo[1,5-a]pyrimidine], the chromatographic logP (log P) was 3.97.

As to `N#Cc1cnn2c(N3CCCCC3)c(-c3c(F)cccc3Cl)c(Cl)nc12` [compound 21], the chromatographic logP (logP) was 4.32.

These data come from patent publication US20060089499A1, “Pyrazolopyrimidines and the use thereof for controlling harmful organisms” (priority 2002, published 2006).
